Data published in article PMC9694048 (Pharmaceutics, 2022).
In brackets after ≈: the same amount, converted by molar mass. Where a name gives a salt, the structure may show the parent alone. Read-outs that look alike come from different tables or passages of the source. Where a SMILES comes first, the peptide text is derived from it. [ ]: non-standard residue; d: D form.

How the values were obtained:
WERI-Rb1 cells [1] = assay: MTS cell viability assay; format: cell-based
Method: (§1) WERI-Rb1 and ARPE-19 cells were seeded at a concentration of 2 × 10^3 cells/well in a 96-well plate and cultured at 37 °C in a humidified 5% CO2 incubator. After seeding the cells, they were treated with various concentrations of CAPs and further incubated for 48 h at 37 °C. Cell viability was assessed after 48 h using the Cell-Titer 96® Aqueous One Solution Cell Proliferation Assay (cat#G3582, Promega, WI, USA) according to the manufacturer’s protocol and described earlier. Briefly, 10 µL of MTS reagent was added to each well and the cells were incubated at 37 °C for 2 h before the experiment end time points. Percentage cell viability was calculated from the absorbance measured at 490 nm using a TECAN microplate reader.

S. aureus/MRSA = assay: MIC by broth microdilution; format: cell-based; conditions: 35 °C, 24 h, duplicates
Method: The minimum inhibitory concentrations (MIC) of cationic peptides were determined using the broth microdilution method in a 96-well microtiter plate (Cellstar, Greiner Bio-One, Austria). The inoculum was prepared by suspending overnight grown isolated colonies selected from a Tryptic Soy Agar (TSA) plate in water for injection. The concentration of the inoculum suspension was adjusted to match that of the 0.5 McFarland’s standard (10^8 CFU/mL) and further diluted 150-fold by adding 50 μL of suspension into 7.5 mL of Mueller−Hinton broth to obtain an inoculum of 10^5 to 10^6 CFU/mL. Lyophilized peptide obtained from the manufacturer was dissolved in water and adjusted to a final concentration of 0.5 to 256 μg/mL in twofold serial dilutions. A total of 100 μL of the solution was then mixed with an equal volume of bacterial inoculum prepared before in 96-well plates. The plates were then incubated at 35 °C for 24 h, and the optical density at 600 nm (OD600) was determined using a TECAN microplate reader.

WERI-Rb1 tumor spheroids = assay: Tumor spheroid area by high content imaging; format: cell-based; conditions: 7-day-old WERI-Rb1 spheroids, IC50 dose, 48 h, n = 9 per condition
Method: Spheroids were developed using the hanging drop protocol on low attachment U-bottom 96-well plate. The single cell suspension of 5 × 10^2 WERI-Rb1 cells in 100 µL medium was loaded in each well of a 96-well plate. The cells were cultured at 37 °C in a 90% humidified incubator with 5% CO2 for 7 days for the generation of tight and regular tumor spheroids. Seven-day-old spheroids (n = 9 per condition) were treated with 100 μL of freshly prepared medium containing an IC50 dose of topotecan (Figure S1), HC3, or HC5. The cultures were then incubated for 48 h prior to high content analysis (HCA) and immunofluorescence (IF) assays.
WERI-Rb1 cells were stained with orange plasma membrane stain as per the manufacturer’s protocol (Cell Mask Orange Plasma membrane stain; cat#C10045, Invitrogen, Waltham, MA, USA) prior to the development of spheroids. The stained WERI-Rb1 cells were used for spheroid formation using the hanging drop protocol on a low attachment U-bottom 96-well plate. […] The images were acquired using the automated high-content imaging system, IN Cell Analyzer 6000 (GE Healthcare, Singapore), equipped with a laser-based confocal platform having a 2× objective. The automatically captured single well imaging of spheroids and a Z stack of 11 images were separated by 50 µm total 500 µm depth for spheroids, using maximum intensity projection (MIP) acquisition and single-channel filter at 567 nm. To reduce data storage and image analysis time, we analyzed 2D projection images of tumor spheroids for multiple treatment conditions. Spheroid area and shape were automatically quantified by HCA using the IN-Cell 6000 software (GE Healthcare, Singapore). The mean area (µm^2) of each spheroid was calculated to elucidate the drug/peptide response.

WERI-Rb1 cells [2] = assay: Western blot of DNA damage markers; format: cell-based; conditions: IC50 dose; for γH2A.X phosphorylation at Ser139 (immunoblot): 48 h, Western blot (Figure 4a); for phosphorylation of ATM and CHK2 (immunoblot): 48-h treatment, Western blot (Figure 4b)
Method: WERI-Rb1 cells were seeded in 6-well cell culture plates (1 × 10^6 cells/well), incubated at 37 °C in a humidified 5% CO2 incubator, and were treated with IC50 doses of topotecan, HC3. or HC5. After 48 h, cells were lysed in RIPA buffer (20 mM Tris pH 8.0, 0.1% SDS, 150 mM NaCl, 0.08% sodium deoxycholate, 1% NP40 supplemented with one tablet of protease inhibitor and phosphatase inhibitor (Roche). 20 µg of total protein was loaded per lane and separated by SDS-PAGE. The separated proteins on the gel were transferred to PVDF membrane and were probed for antibodies against γH2A.X (1:1000, cat#2595, Cell Signaling Technology, Danvers, MA, USA), p-γH2A.X (Ser139) (1:1000, cat#2577, Cell Signaling Technology, Danvers, MA, USA), p-BCL2(Ser70) (1:1000, cat#2827, Cell Signaling Technology, Danvers, MA, USA), BCL2 (1:1000, cat#2872, Cell Signaling Technology, Danvers, MA, USA), Bax (1:1000, cat#2772, Cell Signaling Technology, Danvers, MA, USA), p-ATM(Ser1981) (1:1000, cat#5883, Cell Signaling Technology, Danvers, MA, USA), ATM (1:1000, cat#2873, Cell Signaling Technology, Danvers, MA, USA), p-Chk2(Thr68) (1:1000, cat#2661, Cell Signaling Technology, Danvers, MA, USA), Chk2 ([…], cat#2662, Cell Signaling Technology, Danvers, MA, USA), p-p53(Ser15) (1:1000, cat#9284, Cell Signaling Technology, Danvers, MA, USA), p-p53(Ser46) (1:1000, cat#2521, Cell Signaling Technology, Danvers, MA, USA), p53 (1:1000, cat#2524, Cell Signaling Technology, Danvers, MA, USA), Cleaved caspase 9 (1:1000, cat#9505, Cell Signaling Technology, Danvers, MA, USA), Cleaved caspase 3 (1:1000, cat#9661, Cell Signaling Technology, Danvers, MA, USA), Cleaved PARP (1:1000, cat#5625, Cell Signaling Technology, Danvers, MA, USA), and GAPDH (1:2000, cat#ab9485, Abcam, Cambridge, UK). Proteins of interest were detected with HRP-conjugated sheep anti-mouse (1:5000, cat#7076, Cell Signaling Technology, Danvers, MA, USA) or anti-rabbit IgG antibody (1:5000, cat#7074, Cell Signaling Technology, Danvers, MA, USA) and visualized with the Clarity ECL Western blotting substrate (Bio-Rad, Hercules, CA, USA) according to the provided protocol.

ARPE-19 cells [3] = assay: Western blot of apoptotic markers in cytoplasmic and mitochondrial fractions; format: cell-based, Human; conditions: ARPE-19, 48-h exposure, cytoplasmic and mitochondrial fractions (Figure 5c)
WERI-Rb1 cells [4] = assay: Trypan blue viability assay; format: cell-based; conditions: WERI-Rb1, 48 h treatment; for cell death at a high dose: high dose (dose not specified); for cell death at a low dose: low dose (dose not specified)
Method: WERI-Rb1 cells (1 × 10^5) were treated with increasing concentrations (7.7 µM, 36.25 µM, 72.5 µM, 145 µM, or 290 µM) of a panel of six HC peptides (HC1, HC2, HC3, HC4, HC5, and HC6). Nocodazole (10 µM) treatment was used as a positive control for the study, with untreated cells as the negative control. All treatments were performed at 37 °C in a 90% humidified incubator with 5% CO2 for 48 h. After 48 h post-treatment, cells were stained with 0.4% trypan blue (cat#15250061, Invitrogen, Waltham, MA, USA) and the number of live and dead cells for each time point was estimated using the hemocytometer cell counting protocol. The percentage of cell viability was calculated by dividing the live cell count by the total cell count.

ARPE-19 cells [5] = assay: MTS cell viability assay; format: cell-based, Human; conditions: ARPE-19, MTS, 48 h (Figure 2c)
Method: as §1

[6] = WERI-Rb1 cells, 48 h, dose used for spheroid treatment

## COc1cccc2c1C(=O)c1c(O)c3c(c(O)c1C2=O)C[C@@](O)(C(=O)CO)C[C@@H]3O[C@H]1C[C@H](N)[C@H](O)[C@H](C)O1 [doxorubicin]
WERI-Rb1 cells [1]; WERI-Rb1, MTS, 48 h exposure, (Figure S4), read-out: IC50
  IC50: 2.5 µM

## CCCCCCCCCC(=O)N[C@@H](Cc1c[nH]c2ccccc12)C(=O)N[C@H](CC(N)=O)C(=O)N[C@@H](CC(=O)O)C(=O)N[C@@H]1C(=O)NCC(=O)N[C@@H](CCCN)C(=O)N[C@@H](CC(=O)O)C(=O)N[C@H](C)C(=O)N[C@@H](CC(=O)O)C(=O)NCC(=O)N[C@H](CO)C(=O)N[C@@H]([C@H](C)CC(=O)O)C(=O)N[C@@H](CC(=O)c2ccccc2N)C(=O)O[C@@H]1C [Daptomycin]
S. aureus/MRSA; strain MRSA 9808R, Mueller-Hinton broth
  Minimum inhibitory concentration: 0.31 µM (≈ 0.502 µg/mL)
S. aureus/MRSA; strain MRSA 21595, Mueller-Hinton broth
  Minimum inhibitory concentration: 0.31 µM (≈ 0.502 µg/mL)
S. aureus/MRSA; strain MRSA 42412, Mueller-Hinton broth
  Minimum inhibitory concentration: 0.31 µM (≈ 0.502 µg/mL)
S. aureus/MRSA; strain MRSA 43300, Mueller-Hinton broth
  Minimum inhibitory concentration: 0.31 µM (≈ 0.502 µg/mL)
S. aureus/MRSA; strain MRSA 68004, Mueller-Hinton broth
  Minimum inhibitory concentration: 0.31 µM (≈ 0.502 µg/mL)
S. aureus/MRSA; strain MRSA 700699, Mueller-Hinton broth
  Minimum inhibitory concentration: 0.62 µM (≈ 1 µg/mL)
S. aureus/MRSA; strain MRSA +B32:L426506, Mueller-Hinton broth
  Minimum inhibitory concentration: 0.31 µM (≈ 0.502 µg/mL)
S. aureus/MRSA; strain MRSA BAA38, Mueller-Hinton broth
  Minimum inhibitory concentration: 4.94 µM (≈ 8.01 µg/mL)
S. aureus/MRSA; strain MRSA DB57964/04, Mueller-Hinton broth
  Minimum inhibitory concentration: 0.31 µM (≈ 0.502 µg/mL)
S. aureus/MRSA; strain S. aureus 4299, Mueller-Hinton broth
  Minimum inhibitory concentration: 2.47 µM (≈ 4 µg/mL)
S. aureus/MRSA; strain S. aureus 4400R, Mueller-Hinton broth
  Minimum inhibitory concentration: 0.31 µM (≈ 0.502 µg/mL)
S. aureus/MRSA; strain S. aureus 4583R, Mueller-Hinton broth
  Minimum inhibitory concentration: 0.31 µM (≈ 0.502 µg/mL)
S. aureus/MRSA; strain S. aureus 6538, Mueller-Hinton broth
  Minimum inhibitory concentration: 0.15 µM (≈ 0.243 µg/mL)
S. aureus/MRSA; strain S. aureus 29213, Mueller-Hinton broth
  Minimum inhibitory concentration: 0.15 µM (≈ 0.243 µg/mL)
S. aureus/MRSA; strain S. aureus 29737, Mueller-Hinton broth
  Minimum inhibitory concentration: 0.31 µM (≈ 0.502 µg/mL)

## CC[C@@]1(O)C(=O)OCc2c1cc1n(c2=O)Cc2cc3c(CN(C)C)c(O)ccc3nc2-1 [topotecan, Topotecan hydrochloride hydrate]
WERI-Rb1 cells [1]; WERI-Rb1, MTS, 48 h exposure, 5 nM to 50 nM (Figure S3), read-out: IC50
  IC50: 0.01 µM
WERI-Rb1 tumor spheroids
  effect on Rb spheroid size: disrupted Rb spheroids
WERI-Rb1 cells [2]
  γH2A.X phosphorylation at Ser139 (immunoblot): induction of γH2A.X phosphorylation at Ser139
ARPE-19 cells [3]
  apoptotic events in ARPE-19 cells (Bax, cytochrome c): induced Bax expression in the mitochondrial fraction of ARPE-19

## N=C(N)NCCC[C@@H](NC(=O)[C@H](CCCCN)NC(=O)[C@@H](CCCNC(=N)N)NC(=O)[C@H](CCCCN)NC(=O)[C@@H](CCCNC(=N)N)NC(=O)[C@H](CCCCN)NC(=O)[C@@H](CCCNC(=N)N)NC(=O)[C@H](CCCCN)NC(=O)[C@@H](CCCNC(=N)N)NC(=O)[C@H](CCCCN)NC(=O)[C@@H](CCCNC(=N)N)NC(=O)[C@@H](N)CCCCN)C(=O)O [HC3] (H-K[dR]K[dR]K[dR]K[dR]K[dR]K[dR]-OH; N-terminus and C-terminus assumed)
WERI-Rb1 cells [4]
  cell death at a high dose: 60%
  cell death at a low dose: 40%
WERI-Rb1 cells [1]; [6]
  IC50: 77.2 µL/mL
ARPE-19 cells [5]
  cytotoxic effect on non-malignant ARPE-19 cells: did not display any cytotoxic effect
WERI-Rb1 tumor spheroids
  effect on Rb spheroid size: effectively shrunk and decreased the Rb spheroid size
WERI-Rb1 cells [2]
  phosphorylation of ATM and CHK2 (immunoblot): induced phosphorylation of ATM (ataxia-telangiectasia mutated) at Ser1981 and CHK2 at Thr68
  γH2A.X phosphorylation at Ser139 (immunoblot): did not show any activation of γH2A.X(Ser139)
ARPE-19 cells [3]
  apoptotic events in ARPE-19 cells (Bax, cytochrome c): did not trigger any apoptotic events

## N=C(N)NCCC[C@H](NC(=O)[C@@H](CCCCN)NC(=O)[C@H](CCCNC(=N)N)NC(=O)[C@@H](CCCCN)NC(=O)[C@H](CCCNC(=N)N)NC(=O)[C@@H](CCCCN)NC(=O)[C@H](CCCNC(=N)N)NC(=O)[C@@H](CCCCN)NC(=O)[C@H](CCCNC(=N)N)NC(=O)[C@@H](CCCCN)NC(=O)[C@H](CCCNC(=N)N)NC(=O)[C@H](N)CCCCN)C(=O)O [HC5] (H-[dK]R[dK]R[dK]R[dK]R[dK]R[dK]R-OH; N-terminus and C-terminus assumed)
WERI-Rb1 cells [4]
  cell death at a high dose: 60%
  cell death at a low dose: 40%
WERI-Rb1 cells [1]; [6]
  IC50: 65.2 µL/mL
ARPE-19 cells [5]
  cytotoxic effect on non-malignant ARPE-19 cells: did not display any cytotoxic effect
WERI-Rb1 tumor spheroids
  effect on Rb spheroid size: effectively shrunk and decreased the Rb spheroid size
WERI-Rb1 cells [2]
  phosphorylation of ATM and CHK2 (immunoblot): induced phosphorylation of ATM (ataxia-telangiectasia mutated) at Ser1981 and CHK2 at Thr68
  γH2A.X phosphorylation at Ser139 (immunoblot): did not show any activation of γH2A.X(Ser139)
ARPE-19 cells [3]
  apoptotic events in ARPE-19 cells (Bax, cytochrome c): did not trigger any apoptotic events
